Patent US4087421A, “Substituted benzodiazepines and method of use” (American Cyanamid Company, priority 1977, dated 1978)
“And” between values parts separate entries of the source, which are not always exact repeats. Identical values can stand only once.

Assays:
[1] = "writhing syndrome" test for analgesic activity (phenyl p-quinone); format: in vivo, male Swiss albino mice; settings: control approximately 30 per pair, active if 18 or less
Experimental: This method is based upon the reduction of the number of writhes following the intraperitoneal injection of one mg./kg. of body weight of phenyl p-quinone in male Swiss albino mice weighing 15-25 g. The syndrome is characterized by intermittent contractions of the abdomen, twisting and turning of the trunk, and extension of the hind legs beginning 3 to 5 minutes after injection of the phenyl p-quinone. The test compounds are administered orally at the indicated dose to groups of 2 mice each, 30 minutes before injection of the phenyl p-quinone.

[2] = Prevention of reserpine-induced hypothermia in rats; format: in vivo; settings: for ED50: Rattus norvegicus, oral, dose column in mg/kg, read-out: ED50 (95% C.L.)
Experimental: Groups of 5 rats were treated orally with graded doses of the test compounds. One hour later the animals were treated with reserpine (solubilized in propylene glycol and citric acid) at a dose of 5 mg/kg intraperitoneally. Rectal temperatures were measured using a YSI Telethermometer. Temperatures were recorded just prior to treatment, one hour later just prior to reserpine administration and at hourly intervals following reserpine administration for 5 hours. […]

[3] = Inhibition of tetrabenazine induced depression of exploratory behavior in mice; format: in vivo; settings: for Number Responded/Number Treated: intraperitoneally or orally, 1 h before tetrabenazine 30 mg/kg
Experimental: Varying doses of the test compounds are administered intraperitoneally or orally to 5 mice one hour before the administration of tetrabenazine hexamate at an intraperitoneal dose of 30 mg/kg which is known to depress markedly the exploratory behavior of normal mice. Thirty minutes later the mice are tested for their exploratoy behavior. Individual mice are placed in the center of a horizontal disc. Inhibition of the depression induced by tetrabenazine is considered present if the mice perform one or more of the following actions within 10 seconds after being placed on the disc:
(1) Animals move to the edge of the disc and pear over the side.
(2) Animals move 180° in place.
(3) Animals display a head movement of 90° immediately followed by a head movement in the opposite direction of at least 45°.
Administration of the test compounds to additional groups of 5 mice is repeated, the numbers of individual animals showing an anti-depressant response (normal exploratory behavior) is recorded and the results are analyzed by the following scheme (statistically standardized; significant P = less than 0.05).
The results from several dose levels (acceptance in at least two sequential test procedures) are then used to establish the Range of Active Doses.

[4] = Discrete Trial Conditioned Avoidance Test; format: in vivo, male Long-Evans rats; settings: Rattus norvegicus, read-out: ED50 (reduces avoidance response by 50% as compared to controls)
Experimental: In this test the compounds are administered orally to male Long-Evans rats in a universal starch vehicle. The rats have been pre-conditioned to make a 70% avoidance response. The rats are placed in individual cages and a warning tone is sounded every 20 seconds. Each rat has the opportunity to press a bar which, if done within 5 seconds, prevents an electric shock through the grid floor of the cage and is termed an avoidance response. Each rat is given 50 trials and a score of avoidance responses is kept. The drug is administered at various dose levels. […]

[5] = reduction of spontaneous motor activity (Animax Activity Counter); format: in vivo; settings: Rattus norvegicus, 5 min; oral, rats, 5 minute period; read-out: MDD50 (effective dose that causes a 50% reduction in motor activity)
Experimental: A useful test for anti-psychotic activity consists of measuring the reduction of spontaneous motor activity in animals.
Groups of 4 rats are treated orally with the test compound dissolved or suspended in starch vehicle at the maximum tolerated dose. At the estimated time of peak effect, the animals are placed singly into an Animax Activity Counter and the activity of each rat is recorded over a 5 minute period. The activity counts are compared to historical or parallel control values to determine significant increased or decreased locomotor activity.

[6] = Enhancement of yohimbine lethality in mice; format: in vivo; settings: yohimbine 34 mg/kg
Experimental: The test compounds were administered intraperitoneally, at various dose levels, to groups of 10 mice. One hour later all mice received yohimbine at a dose (34 mg/kg) estimated to have a lethal effect in 4% of the mice. Deaths were recorded 18 to 24 hours later.

[7] = modified Randall and Selitto analgesic test, brewers yeast inflamed paw; format: in vivo, rats; settings: 200 mg/Kg oral; two hours after yeast; active if T/C ≥ 1.37
Experimental: To determine analgesic activity, a modification of the method of Randall and Selitto [Arch. Int. […] This test measures the pain threshold of rats whose paws are made sensitive to pressure by the injection of 0.1 ml. of a 20% aqueous suspension of brewers yeast into the plantar surface of the left hind paw. Constantly increasing force (16 g/second) is applied to the swollen paw using an Analgesy Meter, Ugo Basile. The pressure is cut off at 250 g. of force when there is no response (sudden struggle or vocalization). […] Pressure-pain thresholds are always recorded two hours after administration of Brewers' yeast. Test compounds are administered at the same time as the yeast, at an oral dose of 200 mg/Kg. Ratios of treated (T)/control (C) reaction thresholds are calculated as estimates of analgesic efficacy (degree of analgesia obtainable).

[8] = reversible ptosis test; format: in vivo; settings: oral, rats
Experimental: A useful test for anti-psychotic activity consists of measuring ptosis in animals.
Ptosis is defined as closure of the palpebral aperture (eyelid) greater than 70%. The compounds to be tested were administered orally to groups of 10 rats each. Periodically after treatment the rats were gently placed on the cage top and examined for 90 seconds for signs of ptosis. This manipulation eliminates spontaneous ptosis. The rats were then dropped from a height of about 18 inches (exteroceptive stimulation) onto the cage top to test for reversibility of ptosis. Reversible ptosis is defined as less than 70% closure of the palpebral aperture for longer than one minute after the exteroceptive stimulation and is indicative of neuroleptic activity of the drug administered.

Structure (SMILES): CN1CCN(C2=Nc3ccccc3N(C)c3cscc32)CC1 [4-Methyl-10-(4-methyl-1-piperazinyl)-4H-thieno[3,4-b][1,5]benzodiazepine]
- No. of Writhes Per Pair ([1]; 50 mg/kg oral): 0
- Percent of Animals Showing > Two Standard Deviations in Rectal Temperature Over Control Means ([2]; 0.20 mg/kg oral, 2 hours after reserpine): 0%
- Percent of Animals Showing > Two Standard Deviations in Rectal Temperature Over Control Means ([2]; 0.20 mg/kg oral, 3 hours after reserpine): 0%
- Percent of Animals Showing > Two Standard Deviations in Rectal Temperature Over Control Means ([2]; 0.20 mg/kg oral, 4 hours after reserpine): 0%
- Percent of Animals Showing > Two Standard Deviations in Rectal Temperature Over Control Means ([2]; 0.20 mg/kg oral, 5 hours after reserpine): 0%
- Percent of Animals Showing > Two Standard Deviations in Rectal Temperature Over Control Means ([2]; 0.39 mg/kg oral, 2 hours after reserpine): 0%
- Percent of Animals Showing > Two Standard Deviations in Rectal Temperature Over Control Means ([2]; 0.39 mg/kg oral, 3 hours after reserpine): 0%
- Percent of Animals Showing > Two Standard Deviations in Rectal Temperature Over Control Means ([2]; 0.39 mg/kg oral, 4 hours after reserpine): 0%
- Percent of Animals Showing > Two Standard Deviations in Rectal Temperature Over Control Means ([2]; 0.39 mg/kg oral, 5 hours after reserpine): 0%
- Percent of Animals Showing > Two Standard Deviations in Rectal Temperature Over Control Means ([2]; 0.78 mg/kg oral, 2 hours after reserpine): 33%
- Percent of Animals Showing > Two Standard Deviations in Rectal Temperature Over Control Means ([2]; 0.78 mg/kg oral, 3 hours after reserpine): 7%
- Percent of Animals Showing > Two Standard Deviations in Rectal Temperature Over Control Means ([2]; 0.78 mg/kg oral, 4 hours after reserpine): 7%
- Percent of Animals Showing > Two Standard Deviations in Rectal Temperature Over Control Means ([2]; 0.78 mg/kg oral, 5 hours after reserpine): 27%
- Percent of Animals Showing > Two Standard Deviations in Rectal Temperature Over Control Means ([2]; 1.56 mg/kg oral, 2 hours after reserpine): 100%
- Percent of Animals Showing > Two Standard Deviations in Rectal Temperature Over Control Means ([2]; 1.56 mg/kg oral, 3 hours after reserpine): 40%
- Percent of Animals Showing > Two Standard Deviations in Rectal Temperature Over Control Means ([2]; 1.56 mg/kg oral, 4 hours after reserpine): 0%
- Percent of Animals Showing > Two Standard Deviations in Rectal Temperature Over Control Means ([2]; 1.56 mg/kg oral, 5 hours after reserpine): 60%
- Percent of Animals Showing > Two Standard Deviations in Rectal Temperature Over Control Means ([2]; 3.13 mg/kg oral, 2 hours after reserpine): 50%
- Percent of Animals Showing > Two Standard Deviations in Rectal Temperature Over Control Means ([2]; 3.13 mg/kg oral, 3 hours after reserpine): 30%
- Percent of Animals Showing > Two Standard Deviations in Rectal Temperature Over Control Means ([2]; 3.13 mg/kg oral, 4 hours after reserpine): 30%
- Percent of Animals Showing > Two Standard Deviations in Rectal Temperature Over Control Means ([2]; 3.13 mg/kg oral, 5 hours after reserpine): 20%
- Percent of Animals Showing > Two Standard Deviations in Rectal Temperature Over Control Means ([2]; 6.25 mg/kg oral, 2 hours after reserpine): 80%
- Percent of Animals Showing > Two Standard Deviations in Rectal Temperature Over Control Means ([2]; 6.25 mg/kg oral, 3 hours after reserpine): 80%
- Percent of Animals Showing > Two Standard Deviations in Rectal Temperature Over Control Means ([2]; 6.25 mg/kg oral, 4 hours after reserpine): 80%
- Percent of Animals Showing > Two Standard Deviations in Rectal Temperature Over Control Means ([2]; 6.25 mg/kg oral, 5 hours after reserpine): 0%
- Percent of Animals Showing > Two Standard Deviations in Rectal Temperature Over Control Means ([2]; 12.5 mg/kg oral, 2 hours after reserpine): 100%
- Percent of Animals Showing > Two Standard Deviations in Rectal Temperature Over Control Means ([2]; 12.5 mg/kg oral, 3 hours after reserpine): 100%
- Percent of Animals Showing > Two Standard Deviations in Rectal Temperature Over Control Means ([2]; 12.5 mg/kg oral, 4 hours after reserpine): 100%
- Percent of Animals Showing > Two Standard Deviations in Rectal Temperature Over Control Means ([2]; 12.5 mg/kg oral, 5 hours after reserpine): 20%
- ED50 ([2]; 2 hours after reserpine): 1.6 mg/kg
- ED50 ([2]; 3 hours after reserpine): 2.9 mg/kg
- ED50 ([2]; 4 hours after reserpine): 3.5 mg/kg
- Number Responded/Number Treated ([3]; 0.78 mg/kg): 1/10
- Number Responded/Number Treated ([3]; 1.56 mg/kg): 3/10
- Number Responded/Number Treated ([3]; 3.13 mg/kg): 6/10
- Number Responded/Number Treated ([3]; 6.25 mg/kg): 6/10
- Number Responded/Number Treated ([3]; 12.5 mg/kg): 7/10
- Number Responded/Number Treated ([3]; 25.0 mg/kg): 8/10
- ED50 ([3]; Mus musculus, calculated by method of Finney, dose column in mg/kg, read-out: ED50 (95% C.L.)): 4.2 mg/kg
- ED50 ([4]; oral, male Long-Evans rats): 17 mg/kg
- ED50 [5]: 12 mg/kg
- Number Dead/Number Treated ([6]; 10 mg/kg intraperitoneal, 18 hours): 3/10
- Number Dead/Number Treated ([6]; 10 mg/kg intraperitoneal, 24 hours): 8.10
- Number Dead/Number Treated ([6]; 20 mg/kg intraperitoneal, 18 hours): 6/10
- Number Dead/Number Treated ([6]; 20 mg/kg intraperitoneal, 24 hours): 8/10
- Number Dead/Number Treated ([6]; 40 mg/kg intraperitoneal, 18 hours): 4/10
- Number Dead/Number Treated ([6]; 40 mg/kg intraperitoneal, 24 hours): 8/10

Structure (SMILES): CN1CCN(C2=Nc3cc(Cl)ccc3N(C)c3cscc32)CC1.[O-][Cl+3]([O-])([O-])O.[O-][Cl+3]([O-])([O-])O [7-Chloro-4-methyl-10-(4-methyl-1-piperazinyl)-4H-thieno[3,4-b][1,5]benzodiazepine diperchlorate]
- Ratio T/C (treated/control reaction thresholds) [7]: 1.55
- ED50 [5]: 25 mg/kg

Structure (SMILES): CN1CCN(C2=Nc3cc(Cl)ccc3Nc3cscc32)CC1.[O-][Cl+3]([O-])([O-])O.[O-][Cl+3]([O-])([O-])O [7-Chloro-10-(4-methyl-1-piperazinyl)-4H-thieno[3,4-b][1,5]benzodiazepine diperchlorate]
- ED50 (dose estimated to create reversible ptosis in 50% of the animals) [8]: 10 mg/kg
- No. of Writhes Per Pair ([1]; 1.6 mg/kg oral): 1 and 2
- ED50 [5]: 20 mg/kg

Structure (SMILES): CN1CCN(C2=Nc3ccccc3Nc3cscc32)CC1 [10-(4-Methyl-1-piperazinyl)-4H-thieno[3,4-b][1,5]benzodiazepine]
- ED50 (dose estimated to create reversible ptosis in 50% of the animals) [8]: 13 mg/kg
- Ratio T/C (treated/control reaction thresholds) [7]: 1.57
- No. of Writhes Per Pair ([1]; 6.25 mg/kg oral): 4 and 2
- ED50 ([4]; oral, male Long-Evans rats): 7 mg/kg
- ED50 [5]: 6.1 mg/kg

Structure (SMILES): CN(C)CCCN1c2ccccc2Sc2ccc(Cl)cc21 [Chlorpromazine, reference compound]
- ED50 ([4]; po): 9 mg/kg
